{"source": "patent US20110003796A1", "about": "“METHOD FOR THE TREATMENT OF PSYCHIC DISORDERS” (Consejo Nacional de Investigaciones Cientificas y Tecnicas …, priority 2009, published 2011)", "key": {"rats [1]": {"tested_on": "rats", "test": "Forced swimming test (FST)", "type": "in vivo, rat (male Wistar)", "details": "for climbing in FST / immobility in FST / swimming in FST: 16 days", "quoted_text": "(§1) The experiments were carried out with male Wistar rats with a body weight of 200-386 g. Rats were kept in a cycle of 12 hours of light (8:00 a 20:00) and 12 hours of darkness with free access to water and food except during the tests. The rats were divided in four groups, housed in individual polyethylene cages of with three or four rats each (55×38×30 cm) and fed with standard diet for the controls (C) or diet supplemented with omega-3 fatty acids (ω3). The animals were used only once in each test. All tests were performed in agreement with the Guidelines for the Care and Use of Laboratory Animals provided by National Institutes of Health of United States of America.\nThe Fluoxetine Hydrochloride (FLX) and mirtazapine (MTZ) were administered intra-peritoneally (IP) in a volume equivalent to 1 cc/kg and were freshly prepared each morning. The FLX was dissolved in distilled water and MZT was solubilized in isotonic saline (0.9% NaCl) plus three or four drops of glacial acetic acid to dissolve this solution. […] All control rats were given injections of saline.\nIn all cases antidepressant drugs or the saline solution were given once a day for 16 days, the final injection was given 24 hours before the test session (FIGS. 6 and 18).\nThe omega-3 fatty acids were given as diet supplement in the food enriched with salmon oil for 16 days. Each 1000 mg of highly concentrated salmon oil contains about 30% of omega-3, from which 17% is EPA and 13% is DHA; therefore there were 40 mg of omega-3 fatty acids per gram of enriched food. Rats of the ω3 group received a dose of about 0.72 g/kg/day of omega-3 fatty acids.\nThe swimming sessions were carried out placing the rats in Plexiglas cylinders (46 cm of height and 20 cm of diameter) which had been previously filled with water (23-25° C.) to 30 cm from the bottom. All swimming sessions were performed between 12:00 and 18:00 hours.\nTwo sessions were performed: an initial pre-test for 15 minutes followed by a 5-minute test, after 16 days. The drugs were given between both sessions.\nRats were studied at 5-second intervals during the session of forced swimming session. At each interval of 5 seconds, the predominant behavior was assigned to one of the following categories: (1) immobility: flotation in water without fighting, only doing the necessary movements to keep the head out of the water; (2) swimming, making the movements of active swimming, plus the ones necessary to keep simply the head out of the water (i.e., moving around the cylinder); and (3) climbing, making active movements with fore hints out of the water, usually against walls. The scoring for each behavior was expressed as the total of records per session of 5 minutes."}, "rats [2]": {"tested_on": "rats", "test": "Open field test (locomotor activity)", "type": "in vivo, rat (male Wistar)", "experimental": "These studies were performed exactly the same way as the studies of FST had been carried. All rats that experimented the first day of FST (pre-test), received the different treatments during 16 days. On day 17 they were placed in the cage of open field (60×60×60 cm) with the floor divided in squares (15×15 cm). The tests were performed between 14:00 and 17:00 hours, illuminated with an electric bulb of 75 W and placed 75 cm above the floor of the cage, in a quiet room. The locomotion was measured by the number of squares they enter with the four legs (counts), over a period of 5 minutes. After withdrawing the animal, the open field was carefully cleaned with a damp wipe."}, "[3]": {"test": "Body weight gain during chronic treatment", "type": "in vivo, rat (male Wistar)", "quoted_text": "Tests were performed to analyze the body weight gain during chronic treatments with antidepressants and/or omega-3 fatty acids.\nas §1"}, "rats [4]": {"tested_on": "rats", "details": "cited from earlier work; for antidepressant effect in prior studies: FLX 1 mg/kg, MTZ 1 mg/kg; for effect on the FST in prior studies: FLX 10 mg/kg, MTZ 20 mg/kg, similar test conditions"}, "[5]": {"details": "mirtazapine 20 mg/kg ip and/or omega-3 0.72 g/kg"}, "[6]": {"details": "fluoxetine 10 mg/kg ip and/or omega-3 0.72 g/kg"}}, "note": "Entries after “also recorded” stand apart in the source; their conditions may differ. Structures can show the parent of a compound that is named as a salt.", "data": [{"compound": "CN1CCN2c3ncccc3Cc3ccccc3C2C1", "note": "(stereo not shown) [mirtazapine]", "values": [{"measurement": "climbing in FST", "setting": "rats [1]; [5]", "result": "increase"}, {"measurement": "immobility in FST", "setting": "rats [1]; [5]", "result": "significantly reduced the immobility"}, {"measurement": "swimming in FST", "setting": "rats [1]; [5]", "result": "corresponding increase in the swimming"}, {"measurement": "time of immobility in FST", "setting": "rats [1]; mirtazapine sub-optimal dose 1 mg/kg ip and/or omega-3 0.72 g/kg/day, vs control", "result": "did not significantly change the time of immobility"}, {"measurement": "spontaneous locomotor activity in open field", "setting": "rats [2]; mirtazapine 1 mg/kg and/or omega-3 0.72 g/kg/day", "result": "did not interfere with the locomotor activity"}, {"measurement": "spontaneous locomotor activity in open field test", "setting": "rats [2]; mirtazapine 20 mg/kg and/or omega-3 0.72 g/kg", "result": "did not interfere with the responses of locomotor activity"}, {"measurement": "body weight gain", "setting": "[3]; mirtazapine 20 mg/kg and/or omega-3 0.72 g/kg, chronic", "result": "significantly reduced the body weight gain; also recorded: significant decrease in body weight"}, {"measurement": "body weight gain", "setting": "[3]; mirtazapine sub-optimal dose 1 mg/kg and/or omega-3 0.72 g/kg, 1 mg/kg", "result": "does not interfere with the weight gain"}, {"measurement": "body weight gain", "setting": "[3]; mirtazapine sub-optimal dose 1 mg/kg and/or omega-3 0.72 g/kg, listed as Mirtazapine, 1 mg/kg", "result": "did not produce any effect"}, {"measurement": "antidepressant effect in prior studies", "setting": "rats [4]", "result": "not showing an antidepressant effect"}, {"measurement": "effect on the FST in prior studies", "setting": "rats [4]", "result": "produce a more robust effect on the FST"}]}, {"compound": "CNCCC(Oc1ccc(C(F)(F)F)cc1)c1ccccc1", "note": "(stereo not shown) [fluoxetine, Fluoxetine Hydrochloride]", "values": [{"measurement": "effect of treatment on behaviors in FST", "setting": "rats [1]; fluoxetine 1 mg/kg ip alone, two-factor ANOVA", "result": "no effect of treatment with FLX"}, {"measurement": "climbing in FST", "setting": "rats [1]; [6]", "result": "without modifying the behavioral levels of climbing"}, {"measurement": "immobility in FST", "setting": "rats [1]; [6]", "result": "reduces immobility"}, {"measurement": "swimming in FST", "setting": "rats [1]; [6]", "result": "increases swimming"}, {"measurement": "effect of treatment on the FST", "setting": "rats [1]; fluoxetine sub-optimal doses lower than 1 mg/kg (0.1 and 0.5 mg/kg) alone", "result": "did not have any effect on the FST"}, {"measurement": "spontaneous locomotor activity in open field", "setting": "rats [2]; fluoxetine 1 mg/kg and/or omega-3 0.72 g/kg", "result": "None of these treatments with antidepressant effects in the FST affected the levels of activity"}, {"measurement": "spontaneous locomotor activity in open field test", "setting": "rats [2]; fluoxetine 10 mg/kg and/or omega-3 0.72 g/kg", "result": "None of these treatments with antidepressant effects in the FST affected the activity levels"}, {"measurement": "body weight", "setting": "[3]; fluoxetine 10 mg/kg and/or omega-3 0.72 g/kg, vs control group", "result": "Body weight was significantly lower"}, {"measurement": "body weight gain", "setting": "[3]; fluoxetine sub-optimal dose 1 mg/kg", "result": "Body weight gain was reduced although in a lesser extend"}, {"measurement": "antidepressant effect in prior studies", "setting": "rats [4]", "result": "not showing an antidepressant effect"}, {"measurement": "effect on the FST in prior studies", "setting": "rats [4]", "result": "produce a more robust effect on the FST"}]}]}
